Reference: patent US20230113609A1, “SSTR5 ANTAGONISTS” (Kallyope, Inc., priority 2019, published 2023)

Target: T1, human SSTR5 (Homo sapiens, UniProt P35346)
T1 construct: expressed in transfected cells
Assay: Inositol phosphate accumulation assay (IP1 HTRF, antagonist mode)
Format: cell-based
Conditions: CHO-K1 cells co-expressing human SSTR5 with Gqi5, SST28 agonist at concentration generating 90% of full activation
Source text: CHO-K1 cells stably co-expressing human SSTR5 with Gqi5 were developed using Jump-In technology from Thermo-Fisher. Gqi5 is the mouse G alpha q protein, that was modified to interact with Gi-coupled GPCRs as described previously (Coward, P.; Chan, S. D.; Wada, H. G.; Humphries, G. M.; Conklin, B. R. Chimeric G proteins Allow a High-Throughput Signaling Assay of Gi-Coupled Receptors. Anal Biochem. 1999, 270(2),242-248).
Co-expression of Gqi5 with SSTR5 allowed monitoring of SSTR5 activity by following IP1 accumulation. The assay was performed in a 384-well plate format using the IP1 assay kit from Cis-Bio in an antagonist mode, i.e., pre-incubation with antagonist following by receptor activation by agonist at a concentration generating 90% of full activation. Frozen cells expressing human SSTR5 were thawed, washed, and then plated in DMEM supplemented with 10% FBS and non-essential amino acids. 40 μL of 2.5×10^5 cells/mL were plated on a Poly D-Lysine coated 384-well white plate. The cells were then incubated for 16 hr. at 37° C/5% CO2. After 16 hour the medium was removed, and 10 μL of stimulation buffer was added to the cells. Test compounds were dissolved in DMSO at concentrations 2000-fold that of the final assay concentrations. 7.5 nLcompound solutions were transferred to the cell plates using a Labcyte Echo® acoustic liquid handler. The plates were then incubated for 15 minutes at 37° C/5%CO2. After the first incubation, 5 μL of 30 nM SST28 were added to the cells, and the cells were incubated for 90 minutes at 37° C/5%CO2. 5 μL of detection buffer (prepared as described in the IP-1 kit) was added to each well, and the plates were incubated at RT for 1 hour.
TR-FRET was measured using a ClarioSTAR plate reader, calculating the ratio between emissions at 665 nm and 620 nm (HTRF ratio). The HTRF ratio for positive (Max) and negative (Min) controls were used to normalize HTRF data and generate values for % inhibition. IC50 and maximal inhibition values were determined using a standard 4-parameter fit.

T1 sequence (P35346 whole entry): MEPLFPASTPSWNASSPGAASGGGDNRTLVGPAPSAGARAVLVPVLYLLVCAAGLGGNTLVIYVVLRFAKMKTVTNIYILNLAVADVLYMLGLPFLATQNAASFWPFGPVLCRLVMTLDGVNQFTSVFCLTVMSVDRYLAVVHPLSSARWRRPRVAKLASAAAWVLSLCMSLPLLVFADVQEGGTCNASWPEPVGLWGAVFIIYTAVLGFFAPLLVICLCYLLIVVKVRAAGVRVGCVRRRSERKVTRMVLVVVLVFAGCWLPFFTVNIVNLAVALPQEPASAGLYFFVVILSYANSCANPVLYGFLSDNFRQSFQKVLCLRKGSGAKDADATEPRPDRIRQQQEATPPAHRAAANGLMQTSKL

Row | IC50 [nM] | Structure (SMILES)
1 | > 5000 | CCOc1cc(C(=O)OC)c(C2CC2)cc1CN1CCC2(CC1)CC(=O)N(c1ccc(C(=O)NCCCO)cc1)C2 [Example 27, methyl 2-cyclopropyl-5-ethoxy-4-((2-(4-((3-hydroxypropyl)carbamoyl)phenyl)-3-oxo-2,8-diazaspiro[4.5]decan-8-yl)methyl)benzoate]
2 | ≤ 100 | CCOc1cc(-c2ccc(F)cc2)c(C2CC2)cc1CN1CCC2(CC1)CN(c1ccc(C(=O)NCCO)cc1)C(=O)N2 [Example 69, 4-(8-((2-cyclopropyl-5-ethoxy-4′-fluoro-[1,1′-biphenyl]-4-yl)methyl)-2-oxo-1,3,8-triazaspiro[4.5]decan-3-yl)-N-(2-hydroxyethyl)benzamide]
3 | 100 to 1000 | CCOc1cc(C(=O)OC)c(C2CC2)cc1CN1CCC2(CC1)CN(c1ccc(C(=O)NCCO)cc1)C(=O)N2 [Example 75, methyl 2-cyclopropyl-5-ethoxy-4-((3-(4-((2-hydroxyethyl)carbamoyl)phenyl)-2-oxo-1,3,8-triazaspiro[4.5]decan-8-yl)methyl)benzoate]
4 | > 5000 | CCOc1cc(CN2CCC3(CC2)CN(c2ccc(C(=O)NCCS(=O)(=O)O)cc2)C(=O)O3)cc(OCC)c1-c1ccc(F)cc1 [Example 12, 2-(4-(8-((2,6-diethoxy-4′-fluoro-[1,1′-biphenyl]-4-yl)methyl)-2-oxo-1-oxa-3,8-diazaspiro[4.5]decan-3-yl)benzamido)ethane-1-sulfonic acid]
5 | ≤ 100 | CCOc1cc(-c2ccc(F)cc2)c(C2CC2)cc1CN1CCC2(CC1)CN(c1ccc(C(=O)NCCOC(CO)CO)cc1)C(=O)N2 [Example 73, 4-(8-((2-cyclopropyl-5-ethoxy-4′-fluoro-[1,1′-biphenyl]-4-yl)methyl)-2-oxo-1,3,8-triazaspiro[4.5]decan-3-yl)-N-(2-((1,3-dihydroxypropan-2-yl)oxy)ethyl)benzamide]
6 | 100 to 1000 | CCOc1cc(-c2nc(C)no2)c(C2CC2)cc1CN1CCC2(CC1)CN(c1ccc(C(=O)NCCOCCO)cc1)C(=O)N2 [Example 67, 4-(8-(5-cyclopropyl-2-ethoxy-4-(3-methyl-1,2,4-oxadiazol-5-yl)benzyl)-2-oxo-1,3,8-triazaspiro[4.5]decan-3-yl)-N-(2-(2-hydroxyethoxy)ethyl)benzamide]
7 | ≤ 100 | CCOc1cc(-c2ccc(F)cc2)c(C2CC2)cc1CN1CCC2(CC1)CN(c1ccc(S(=O)(=O)NCCOCCOCCO)cc1)C(=O)O2 [Example 83, 4-(8-((2-cyclopropyl-5-ethoxy-4′-fluoro-[1,1′-biphenyl]-4-yl)methyl)-2-oxo-1-oxa-3,8-diazaspiro[4.5]decan-3-yl)-N-(2-(2-(2-hydroxyethoxy)ethoxy)ethyl)benzenesulfonamide]
8 | ≤ 100 | CCOc1cc(-c2ccc(F)cc2)c(C2CC2)cc1CN1CCC2(CC1)CN(c1ccc(C(=O)NCCCS(=O)(=O)O)cc1)C(=O)O2 [Example 63, 3-(4-(8-((2-cyclopropyl-5-ethoxy-4′-fluoro-[1,1′-biphenyl]-4-yl)methyl)-2-oxo-1-oxa-3,8-diazaspiro[4.5]decan-3-yl)benzamido)propane-1-sulfonic acid]
9 | ≤ 100 | CCOc1cc(-c2ccc(F)cc2)c(C2CC2)cc1CN1CCC2(CC1)CN(C13CC(C(=O)NCCOCCO)(C1)C3)C(=O)O2 [compound 92, 3-(8-((2-cyclopropyl-5-ethoxy-4′-fluoro-[1,1′-biphenyl]-4-yl)methyl)-2-oxo-1-oxa-3,8-diazaspiro [4.5]decan-3-yl)-N-(2-(2-hydroxyethoxy)ethyl)bicyclo [1.1.1] pentane-1-carboxamide]
10 | ≤ 100 | CCOc1cc(-c2ccc(F)cc2)c(C2CC2)cc1CN1CCC2(CC1)CN(c1ccc(C(=O)NCCOCCO)cc1)C(=O)O2 [Example 61, 4-(8-((2-cyclopropyl-5-ethoxy-4′-fluoro-[1,1′-biphenyl]-4-yl)methyl)-2-oxo-1-oxa-3,8-diazaspiro [4.5]decan-3-yl)-N-(2-(2-hydroxyethoxy)ethyl)benzamide]

More lines, now with the values behind:

Row | Structure (SMILES) | IC50 [nM]
11 | CCOc1cc(C(=O)OC)c(C2CC2)cc1CN1CCC2(CC1)CN(c1ccc(C(=O)NCCCS(=O)(=O)O)cc1)C(=O)O2 [Example 58, 3-(4-(8-(5-cyclopropyl-2-ethoxy-4-(methoxycarbonyl)benzyl)-2-oxo-1-oxa-3,8-diazaspiro[4.5]decan-3-yl)benzamido)propane-1-sulfonic acid] | ≤ 100
12 | CCOc1cc(C(=O)OC)c(C2CC2)cc1CN1CCC2(CC1)CC(=O)N(c1ccc(C(=O)NCCCNC(=N)N)cc1)C2 [Example 55, methyl 2-cyclopropyl-5-ethoxy-4-((2-(4-((3-guanidinopropyl)carbamoyl)phenyl)-3-oxo-2,8-diazaspiro [4.5]decan-8-yl)methyl)benzoate] | 100 to 1000
13 | CCOc1cc(C(=O)OC)c(C2CC2)cc1CN1CCC2(CC1)CC(=O)N(c1ccc(C(=O)NCCC[N+](C)(C)C)cc1)C2 [Example 28, 3-(4-(8-(5-cyclopropyl-2-ethoxy-4-(methoxycarbonyl)benzyl)-3-oxo-2,8-diazaspiro[4.5]decan-2-yl)benzamido)-N,N,N-trimethylpropan-1-aminium] | > 5000
14 | CCOc1cc(C(=O)OC)c(C2CC2)cc1CN1CCC2(CC1)CC(=O)N(c1ccc(C(=O)NCCC(O)CO)cc1)C2 (centres unmarked) [Example 48, methyl 2-cyclopropyl-4-((2-(4-((3,4-dihydroxybutyl)carbamoyl)phenyl)-3-oxo-2,8-diazaspiro[4.5]decan-8-yl)methyl)-5-ethoxybenzoate] | 100 to 1000
15 | CCOc1cc(CN2CCC3(CC2)CN(c2ccc(C(=O)NCCCC(=O)NC(CO)(CO)CO)cc2)C(=O)O3)cc(OCC)c1-c1ccc(F)cc1 [Example 5] | 100 to 1000
16 | CCOc1cc(C(=O)OC)c(C2CC2)cc1CN1CCC2(CC1)CN(c1ccc(C(=O)NCCCS(N)(=O)=O)cc1)C(=O)O2 [Example 59, methyl 2-cyclopropyl-5-ethoxy-4-((2-oxo-3-(4-((3-sulfamoylpropyl)carbamoyl)phenyl)-1-oxa-3,8-diazaspiro[4.5]decan-8-yl)methyl)benzoate] | ≤ 100
17 | CCOc1cc(C(=O)OC)c(C2CC2)cc1CN1CCC2(CC1)CN(c1ccc(C(=O)NCCOCCO)cc1)C(=O)O2 [Example 56, methyl 2-cyclopropyl-5-ethoxy-4-((3-(4-((2-(2-hydroxyethoxy)ethyl)carbamoyl)phenyl)-2-oxo-1-oxa-3,8-diazaspiro[4.5]decan-8-yl)methyl)benzoate] | ≤ 100
18 | CCOc1cc(-c2ccc(F)cn2)c(C2CC2)cc1CN1CCC2(CC1)CN([C@H]1CC[C@@](C)(C(=O)NCCOCCO)CC1)C(=O)O2 [compound 89] | 100 to 1000
19 | CCOc1cc(C(=O)OC)c(C2CC2)cc1CN1CCC2(CC1)CC(=O)N(c1ccc(C(=O)NCCCP(=O)(O)O)cc1)C2 [Example 32, (3-(4-(8-(5-cyclopropyl-2-ethoxy-4-(methoxycarbonyl)benzyl)-3-oxo-2,8-diazaspiro[4.5]decan-2-yl)benzamido)propyl)phosphonic acid] | > 5000
20 | CCOc1cc(C(=O)OC)c(C2CC2)cc1CN1CCC2(CC1)CC(=O)N(c1ccc(CCCC(=O)NC(C)(C)C(=O)NCCN(C)C)cc1)C2 [Example 17, methyl 2-cyclopropyl-4-((2-(4-(4-((1-((2-(dimethylamino)ethyl)amino)-2-methyl-1-oxopropan-2-yl)amino)-4-oxobutyl)phenyl)-3-oxo-2.8-diazaspiro[4.5]decan-8-yl)methyl)-5-ethoxybenzoate] | 1000 to 5000
